Results published in PMC3165048 (Chemistry & biology, 2010).

Tested on: M. tuberculosis knock-in strains overexpressing MtMetAP1a or MtMetAP1c, wild-type and control strains
Type: cell-based, M. tuberculosis CDC1551

In the case of `O=C1C(Cl)=C(Cl)C(=O)c2ccccc21` [Compound 4, 2,3-dichloro-1,4-naphthoquinone], the “Growth of MtMetAP1a knock-in strain in the presence of inhibitor” value is reported as “gained resistance”, the “Growth of MtMetAP1c knock-in strain in the presence of inhibitor” value is reported as “gained resistance” and the “Growth of wild-type and control M. tuberculosis strains in the presence of inhibitor” value is reported as “inhibited”.
